Reference: patent publication US7625892B2, “Pharmaceutical compositions for the treatment of diseases related to neurotrophines” (Mimetech S.r.l., priority 2002, dated 2009)
Read-outs that look alike come from different tables or passages of the source.

Key:
[1] = system: VGF; test: Induction of VGF production by PC12 cells (western blot); type: cell-based; conditions: FIG. 3
Experimental: The ability of 3-aza-bicyclo(3.2.1)octanes of formula (I) and their dimeric forms of formula (II) and (III) with substitution reported in Table 1-4 was tested also as ability to induce VGF production by PC12 cells. […] Cells were lysed in 0.25% NP-40 in PBS supplemented with 1 mM PMSF (phenyl-methyl) and 1 mM leupeptin and protein concentration was measured in each sample by Bradford assay. Equal amounts of proteins (30 μg) were loaded in 8% SDS-polyacrilamide gel, electrophoresed, blotted onto nitrocellulose membrane and stained with monoclonal antibodies anti-VGF followed by peroxidase-conjugated anti-mouse IgG. Reaction was visualized by Enhanced Chemiluminiscent Reagent (ECL, Amersham) following the manufacturer instruction.
VGF is induced by the selected compounds as well as by hrNGF.

[2] = system: NGF specific surface receptor on PC12 cells; test: Displacement of 125I-NGF binding to PC12 cells; conditions: 0.1 nM 125I-NGF
Experimental: The ability of selected compounds to displace the binding of NGF to specific surface receptor was evaluated through the classic binding techniques of iodinated ligand.
PC12 cells were detached from tissue flasks with PBS-EDTA, washed with HKR medium (10 mM Hepes, 125 mM NaCl, 4.8 mM KCl, 1.3 mM CaCl2, 1.2 mM MgSO4, 1.2 mM KH2PO4, 1 g/l glucose, 1 g/l BSA) and incubated in triplicate in HKR medium with 0.1 nM ^125I-NGF in the presence or absence of variable concentrations of the compounds to be assayed or of hrNGF as internal standard. Displacement curve was obtained by analyzing the resultant cell bound radioactivity in the presence of the compounds or of hrNGF with adequate software (Graphit 4).

[3] = target: T1, Trk-A (Rattus norvegicus, UniProt P35739); test: Trk-A autophosphorylation in PC12 cells; type: cell-based; conditions: 10 μM compound, 30 min, FIG. 5
T1 construct: endogenous in cells; host or cells: PC12 cells
Experimental: To evaluate the ability of the compounds 3-aza-bicyclo(3.2.1)octanes of formula (I) and their dimeric forms of formula (II) and (III) reported in Table 14 to induce Trk-A autophosphorylation, PC12 cells were cultured in medium supplemented with 5% FBS for 48 hours, washed and equilibrated in serum-free medium for 2 hours. 2.5×10^6 cells were then stimulated with 10 μM of selected compounds for 30 min or with 10 nM hrNGF as positive control. Cells were then lysed with 0.5% Triton-X100 in PBS supplemented with protease inhibitors (PMSF, aprotinin, pepstatin, leupeptin) and phosphatase inhibitors. Protein concentrations in each sample was evaluated by Bradford assay and equal amounts (50 μg) of proteins were loaded onto SDS-polyacrilamide gel, electrophoresed and blotted onto nitrocellulose membrane. Membranes was stained with rabbit anti-(Tyr 490 and Tyr 674/675) phosphorylated Trk-A (Cell Signaling Technology) used at the final dilution of 1:1000. After washing, membranes were stained with HRP-conjugated anti-rabbit IgG and the reaction was visualised by using ECL reagents following manufacturing instructions.

T1 sequence (P35739 33-799): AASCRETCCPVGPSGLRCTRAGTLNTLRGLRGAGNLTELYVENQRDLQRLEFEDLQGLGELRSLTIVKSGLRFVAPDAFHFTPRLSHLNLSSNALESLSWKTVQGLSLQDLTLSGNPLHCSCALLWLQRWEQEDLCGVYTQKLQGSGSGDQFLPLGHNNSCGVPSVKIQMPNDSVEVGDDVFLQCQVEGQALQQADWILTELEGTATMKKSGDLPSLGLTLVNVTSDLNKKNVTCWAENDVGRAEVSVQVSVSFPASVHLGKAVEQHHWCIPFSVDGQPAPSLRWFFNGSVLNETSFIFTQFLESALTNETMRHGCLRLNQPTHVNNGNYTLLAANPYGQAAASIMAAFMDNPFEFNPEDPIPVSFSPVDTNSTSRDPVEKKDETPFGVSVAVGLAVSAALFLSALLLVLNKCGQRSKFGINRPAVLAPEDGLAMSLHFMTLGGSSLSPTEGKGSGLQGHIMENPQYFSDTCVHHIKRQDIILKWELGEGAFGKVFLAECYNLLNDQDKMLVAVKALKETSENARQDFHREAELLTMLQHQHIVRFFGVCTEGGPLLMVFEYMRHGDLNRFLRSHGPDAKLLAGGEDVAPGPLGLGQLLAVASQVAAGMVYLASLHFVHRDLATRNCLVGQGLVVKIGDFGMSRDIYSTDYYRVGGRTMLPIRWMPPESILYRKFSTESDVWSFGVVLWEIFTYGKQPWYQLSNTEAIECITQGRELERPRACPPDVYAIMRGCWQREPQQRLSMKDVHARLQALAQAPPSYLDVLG

induction of Trk-A autophosphorylation [3] | Molecule | VGF production induced ([1]; 10 μM compound) | Kd ([2]; FIG. 4a, read-out: Kd (displacement curve, compound used as competitor)) [nM] | VGF production induced ([1]; 10 nM hrNGF) | Kd ([2]; FIG. 4b, read-out: Kd (displacement curve, hrNGF as competitor)) [nM]
able to induce Trk-A autophosphorylation | COC(=O)C1OC2OC1C(=O)N(Cc1ccccc1)C2Cc1ccccc1 (centres unmarked) [Compound 9] | induced | 165 |  | 
 | hrNGF: human recombinant (hr)NGF used as internal standard |  |  | induced | 0.114
